From patent publication US20200131669A1, “CYCLIC PEPTIDE COMPOUND HAVING HIGH MEMBRANE PERMEABILITY, AND LIBRARY CONTAINING SAME” (Chugai Seiyaku Kabushiki Kaisha, priority 2017, published 2020)
Starred links: 1 amine or outer side, 2 acyl side, 3 side chain; linkers in the order of their positions; H or OH if unused. Positions of bridges follow the written chain, without caps; N, C: chain ends. Non-standard residues stand in square brackets, D forms with d. Residues, ends and D or L forms follow the SMILES beside them. *: point of attachment. hPhe(3-Cl) = N[C@@H](CCc1cccc(Cl)c1)C(=O)O; X14 = O=C([C@H](CCc1ccccc1Cl)N[*:1])[*:2]; hNle(7,7-F2) = N[C@@H](CCCCC(F)F)C(=O)O; NMeF = CN[C@@H](Cc1ccccc1)C(=O)O; NMeI = CC[C@H](C)[C@H](NC)C(=O)O; NMeL = CN[C@@H](CC(C)C)C(=O)O; NMeV = CN[C@H](C(=O)O)C(C)C; NMeA = CN[C@@H](C)C(=O)O; Piperidide = C1CCN(*)CC1; Isopentyl = CC(C)CC*; NPrGly = CCCNCC(=O)O; X11 = FC(F)C(F)(F)C*; X2 = Fc1cncc(C*)c1; Sar = CNCC(=O)O; tBu = CC(C)(C)*

Assay: Caco-2 membrane permeability, improved method as used in the following Examples (96-well, 20 to 24 h preincubation)
Type: in vitro ADME
Settings: human, Caco-2, Caco-2
Outline: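 Caco-2 monolayers were grown three weeks and preincubated 20–24 h at 37 °C with compound in DMEM+FaSSIF (1% DMSO) apically. The assay then used compound in FaSSIF/HBSS (1% DMSO, pH 6.0) apically and HBSS with 4% BSA (pH 7.4) basally. Basal samples were taken at 180 min for LC/MS, and Papp (cm/sec) was calculated.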

Row | SMILES | Papp A→B at 180 min
1 | CC[C@H](C)[C@H]1C(=O)N[C@@H]([C@@H](C)O)C(=O)N(C)CC(=O)N(C)[C@@H](CC(C)C)C(=O)N[C@H](C(=O)N2CCCCC2)CC(=O)N(C)[C@@H](C)C(=O)N[C@@H](CCCCC(F)F)C(=O)N(C)[C@@H](CC(C)C)C(=O)N(C)[C@@H](Cc2ccccc2)C(=O)N[C@@H](C(C)C)C(=O)N(C)[C@@H](Cc2ccccc2)C(=O)N1C [pd334] ([NMeA][hNle(7,7-F2)][NMeL][NMeF]V[NMeF][NMeI]T[Sar][NMeL]D-Piperidide; lactam N-11) | 2.4 ×10⁻⁶ cm/s
2 | CC[C@H](C)[C@H]1C(=O)N[C@@H]([C@@H](C)O)C(=O)N(C)CC(=O)N(C)[C@@H](CC(C)C)C(=O)N[C@H](C(=O)N2CCCCC2)CC(=O)N(C)[C@@H](C)C(=O)N[C@@H](CC(C)C)C(=O)N(C)[C@@H](CC(C)C)C(=O)N(C)[C@@H](Cc2ccccc2)C(=O)N[C@@H](CCCCC(F)F)C(=O)N(C)[C@@H](Cc2ccccc2)C(=O)N1C [pd335] ([NMeA]L[NMeL][NMeF][hNle(7,7-F2)][NMeF][NMeI]T[Sar][NMeL]D-Piperidide; lactam N-11) | 2 ×10⁻⁶ cm/s
3 | CCCN1CC(=O)N(C)[C@@H](Cc2ccccc2)C(=O)N[C@@H](CCCCC(F)F)C(=O)N(C)[C@@H](CC(C)C)C(=O)N[C@@H]([C@@H](C)O)C(=O)N(C)CC(=O)N(C)[C@@H](Cc2ccccc2)C(=O)N(C)[C@@H](CC(C)C)C(=O)N[C@@H](COC(C)(C)C)C(=O)N(C)[C@@H](C(C)C)C(=O)N[C@H](C(=O)N2CCCCC2)CC1=O [pd336] ([NPrGly][NMeF][hNle(7,7-F2)][NMeL]T[Sar][NMeF][NMeL]S(tBu)[NMeV]D-Piperidide; lactam N-11) | 2.5 ×10⁻⁶ cm/s
4 | CC(C)CCOC[C@@H]1NC(=O)[C@H](CC(C)C)N(C)C(=O)[C@H](Cc2ccccc2)N(C)C(=O)CN(C)C(=O)[C@H]([C@@H](C)O)NC(=O)[C@H](CC(C)C)N(C)C(=O)[C@H](CCCCC(F)F)NC(=O)[C@H](Cc2ccccc2)N(C)C(=O)CN(C)C(=O)C[C@@H](C(=O)N2CCCCC2)NC(=O)[C@H](CC(C)C)N(C)C1=O [pd338] ([Sar][NMeF][hNle(7,7-F2)][NMeL]T[Sar][NMeF][NMeL]S(Isopentyl)[NMeL]D-Piperidide; lactam N-11) | 1.8 ×10⁻⁶ cm/s
5 | CC(C)C[C@H]1C(=O)N[C@@H](COC(C)(C)C)C(=O)N(C)[C@@H](Cc2ccccc2)C(=O)N(C)[C@@H](C(C)C)C(=O)N[C@H](C(=O)N2CCCCC2)CC(=O)N[C@H](C(C)C)C(=O)N(C)[C@@H](CC(C)C)C(=O)N[C@@H](COc2ccccc2Cl)C(=O)N(C)[C@@H](C)C(=O)N[C@@H]([C@@H](C)O)C(=O)N(C)CC(=O)N1C [pd339] | 2.6 ×10⁻⁶ cm/s
6 | CC(C)C[C@H]1C(=O)N[C@@H](COC(C)(C)C)C(=O)N(C)[C@@H](C)C(=O)N(C)[C@@H](CC(C)C)C(=O)N[C@H](C(=O)N2CCCCC2)CC(=O)N[C@H](C)C(=O)N(C)[C@@H](Cc2ccccc2)C(=O)N[C@@H](COc2ccccc2Cl)C(=O)N(C)[C@@H](CC(C)C)C(=O)N[C@@H]([C@@H](C)O)C(=O)N(C)CC(=O)N1C [pd340] | 1.2 ×10⁻⁶ cm/s
7 | CC[C@H](C)[C@H]1C(=O)N[C@@H]([C@@H](C)O)C(=O)N(C)CC(=O)N(C)[C@@H](CC(C)C)C(=O)N[C@H](C(=O)N2CCCCC2)CC(=O)N(C)[C@@H](C)C(=O)N[C@@H](CC(C)C)C(=O)N(C)[C@@H](CC(C)C)C(=O)N(C)[C@@H](C)C(=O)N[C@@H](COc2ccccc2Cl)C(=O)N(C)[C@@H](Cc2ccccc2)C(=O)N1C [pd341] | 1.4 ×10⁻⁶ cm/s
8 | CC(C)C[C@H]1C(=O)N[C@@H](COC(C)(C)C)C(=O)N(C)[C@@H](Cc2ccccc2)C(=O)N(C)[C@@H](C(C)C)C(=O)N[C@H](C(=O)N2CCCCC2)CC(=O)N[C@H](C(C)C)C(=O)N(C)[C@@H](Cc2ccccc2)C(=O)N[C@@H](COc2cccc(Cl)c2)C(=O)N(C)[C@@H](C)C(=O)N[C@@H]([C@@H](C)O)C(=O)N(C)CC(=O)N1C [pd342] | 1.9 ×10⁻⁶ cm/s
9 | CC(C)C[C@H]1C(=O)N[C@@H](COC(C)(C)C)C(=O)N(C)[C@@H](Cc2ccccc2)C(=O)N(C)[C@@H](C(C)C)C(=O)N[C@H](C(=O)N2CCCCC2)CC(=O)N[C@H](C)C(=O)N(C)[C@@H](Cc2ccccc2)C(=O)NC(COc2cccc(Cl)c2)C(=O)N(C)[C@@H](C(C)C)C(=O)N[C@@H]([C@@H](C)O)C(=O)N(C)CC(=O)N1C (stereo partly shown) [pd343] | 2.2 ×10⁻⁶ cm/s
10 | CC[C@H](C)[C@H]1C(=O)N[C@@H]([C@@H](C)O)C(=O)N(C)CC(=O)N(C)[C@@H](CC(C)C)C(=O)N[C@H](C(=O)N2CCCCC2)CC(=O)N(C)[C@@H](C)C(=O)NC(COc2cccc(Cl)c2)C(=O)N(C)[C@@H](CC(C)C)C(=O)N(C)[C@@H](Cc2ccccc2)C(=O)N[C@@H](C)C(=O)N(C)[C@@H](Cc2ccccc2)C(=O)N1C (stereo partly shown) [pd344] | 1.3 ×10⁻⁶ cm/s
11 | CC[C@H](C)[C@H]1C(=O)N[C@@H]([C@@H](C)O)C(=O)N(C)CC(=O)N(C)[C@@H](C)C(=O)N[C@H](C(=O)N2CCCCC2)CC(=O)N(C)[C@@H](C)C(=O)N[C@@H](C(C)C)C(=O)N(C)[C@@H](CC(C)C)C(=O)N(C)[C@@H](Cc2ccccc2)C(=O)NC(COc2cccc(Cl)c2)C(=O)N(C)[C@@H](Cc2ccccc2)C(=O)N1C (stereo partly shown) [pd345] | 1.8 ×10⁻⁶ cm/s
12 | CC(C)C[C@H]1C(=O)N[C@@H](COC(C)(C)C)C(=O)N(C)[C@@H](Cc2ccccc2)C(=O)N(C)[C@@H](C(C)C)C(=O)N[C@H](C(=O)N2CCCCC2)CC(=O)N[C@H](C(C)C)C(=O)N(C)[C@@H](Cc2ccccc2)C(=O)N[C@@H](COCc2cncc(F)c2)C(=O)N(C)[C@@H](CC(C)C)C(=O)N[C@@H]([C@@H](C)O)C(=O)N(C)CC(=O)N1C [pd346] ([dV][NMeF]S(X2)[NMeL]T[Sar][NMeL]S(tBu)[NMeF][NMeV]D-Piperidide; lactam N-11) | 2.4 ×10⁻⁶ cm/s
13 | CCCN1CC(=O)N(C)[C@@H](Cc2ccccc2)C(=O)N[C@@H](COCC(F)(F)C(F)F)C(=O)N(C)[C@@H](CC(C)C)C(=O)N[C@@H]([C@@H](C)O)C(=O)N(C)CC(=O)N(C)[C@@H](Cc2ccccc2)C(=O)N(C)[C@@H](CC(C)C)C(=O)N[C@@H](COC(C)(C)C)C(=O)N(C)[C@@H](CC(C)C)C(=O)N[C@H](C(=O)N2CCCCC2)CC1=O [pd349] ([NPrGly][NMeF]S(X11)[NMeL]T[Sar][NMeF][NMeL]S(tBu)[NMeL]D-Piperidide; lactam N-11) | 1.8 ×10⁻⁶ cm/s
14 | CC(C)C[C@H]1C(=O)N[C@@H](COC(C)(C)C)C(=O)N(C)[C@@H](Cc2ccccc2)C(=O)N(C)[C@@H](C(C)C)C(=O)N[C@H](C(=O)N2CCCCC2)CC(=O)N[C@H](C(C)C)C(=O)N(C)[C@@H](C)C(=O)N[C@@H](CCc2ccccc2Cl)C(=O)N(C)[C@@H](CC(C)C)C(=O)N[C@@H]([C@@H](C)O)C(=O)N(C)CC(=O)N1C [pd350] ([dV][NMeA][X14][NMeL]T[Sar][NMeL]S(tBu)[NMeF][NMeV]D-Piperidide; lactam N-11) | 1.7 ×10⁻⁶ cm/s
15 | CC(C)C[C@@H]1NC(=O)[C@H](CC(C)C)N(C)C(=O)CN(C)C(=O)[C@H]([C@@H](C)O)NC(=O)[C@H](CC(C)C)N(C)C(=O)[C@H](CCc2ccccc2Cl)NC(=O)[C@H](C)N(C)C(=O)[C@@H](C(C)C)NC(=O)C[C@@H](C(=O)N2CCCCC2)NC(=O)[C@H](C(C)C)N(C)C(=O)[C@H](Cc2ccccc2)N(C)C1=O [pd351] ([dV][NMeA][X14][NMeL]T[Sar][NMeL]L[NMeF][NMeV]D-Piperidide; lactam N-11) | 1.9 ×10⁻⁶ cm/s
16 | CC[C@H](C)[C@H]1C(=O)N[C@@H]([C@@H](C)O)C(=O)N(C)CC(=O)N(C)[C@@H](CC(C)C)C(=O)N[C@H](C(=O)N2CCCCC2)CC(=O)N(C)[C@@H](C)C(=O)N[C@@H](CCc2ccccc2Cl)C(=O)N(C)[C@@H](CC(C)C)C(=O)N(C)[C@@H](CC(C)C)C(=O)N[C@@H](C)C(=O)N(C)[C@@H](Cc2ccccc2)C(=O)N1C [pd352] ([NMeA][X14][NMeL][NMeL]A[NMeF][NMeI]T[Sar][NMeL]D-Piperidide; lactam N-11) | 1.4 ×10⁻⁶ cm/s
17 | CC(C)C[C@H]1C(=O)N[C@H](C(=O)N2CCCCC2)CC(=O)N(C)[C@@H](C)C(=O)N[C@@H](CCc2ccccc2Cl)C(=O)N(C)[C@@H](CC(C)C)C(=O)N(C)[C@@H](CC(C)C)C(=O)N[C@@H](C)C(=O)N(C)[C@@H](Cc2ccccc2)C(=O)N(C)[C@@H](C(C)C)C(=O)N[C@@H]([C@@H](C)O)C(=O)N(C)CC(=O)N1C [pd353] ([NMeA][X14][NMeL][NMeL]A[NMeF][NMeV]T[Sar][NMeL]D-Piperidide; lactam N-11) | 1.4 ×10⁻⁶ cm/s
18 | CC[C@H](C)[C@@H]1NC(=O)[C@H](Cc2ccccc2)N(C)C(=O)CN(C)C(=O)C[C@@H](C(=O)N2CCCCC2)NC(=O)[C@H](C(C)C)N(C)C(=O)[C@H](CCc2ccccc2Cl)NC(=O)[C@H](CC(C)C)N(C)C(=O)[C@H](CC(C)C)N(C)C(=O)CN(C)C(=O)[C@H]([C@@H](C)O)NC(=O)[C@H](CC(C)C)N(C)C1=O [pd354] ([Sar][NMeF]I[NMeL]T[Sar][NMeL][NMeL][X14][NMeV]D-Piperidide; lactam N-11) | 1.5 ×10⁻⁶ cm/s
19 | CC(C)C[C@@H]1NC(=O)[C@H](CC(C)C)N(C)C(=O)CN(C)C(=O)[C@H]([C@@H](C)O)NC(=O)[C@H](CC(C)C)N(C)C(=O)[C@H](CCc2cccc(Cl)c2)NC(=O)[C@H](C)N(C)C(=O)[C@@H](C(C)C)NC(=O)C[C@@H](C(=O)N2CCCCC2)NC(=O)[C@H](C(C)C)N(C)C(=O)[C@H](Cc2ccccc2)N(C)C1=O [pd355] ([dV][NMeA][hPhe(3-Cl)][NMeL]T[Sar][NMeL]L[NMeF][NMeV]D-Piperidide; lactam N-11) | 2.3 ×10⁻⁶ cm/s
